Results: ChEMBL document CHEMBL4483862, “Open-source discovery of chemical leads for next-generation chemoprotective antimalarials” (2018)

System: Plasmodium berghei
Test: Luciferase/luciferin-expressing antifolate-resistant parasites were used to infect a culture of HepG2 cells that were pre-incubated with compounds. Infected hepatocytes emit light due to the luciferase reaction. Assay results are presented as the percent inhibition of light emission compared to control. […]
Assay type: functional
Conditions: sporozoite; for IC90: read-out: LUCIFERASE INFECTION ASSAY - IC90
[1] = read-out: LUCIFERASE INFECTION ASSAY - IC50

Compound	IC90 [µM]	also measured
Cc1ccc(-c2nn(-c3ccccc3)cc2CN(C)C(=O)CCNC(=O)c2ccco2)cc1C	> 10	IC50 (PBLUC_HILL_SLOPE 3, PBLUC_R_SQUARED 0.508, read-out: LUCIFERASE INFECTION ASSAY - IC50): 5.91 µM
Nc1nc(Sc2ncnc3ccsc23)nc2sccc12	> 10	IC50 [1]: 9.85 µM
COc1ccc(Cl)cc1C(=O)NNC(=O)CSc1nccn1-c1ccc(C)c(C)c1	6.58	IC50 (PBLUC_HILL_SLOPE 46.1, PBLUC_R_SQUARED 0.54, read-out: LUCIFERASE INFECTION ASSAY - IC50): 6.27 µM
c1nc(Nc2ccc(C34CC5CC(CC(C5)C3)C4)cc2)c2ccsc2n1	0.884	IC50 (PBLUC_HILL_SLOPE 24.2, PBLUC_R_SQUARED 0.39, read-out: LUCIFERASE INFECTION ASSAY - IC50): 0.808 µM
NC(=O)c1ccc(-c2cc(-c3ccccc3Oc3ccccc3)cnc2N)cc1	2.98	IC50 (PBLUC_HILL_SLOPE 21, PBLUC_R_SQUARED 0.292, read-out: LUCIFERASE INFECTION ASSAY - IC50): 2.68 µM
CC(CNC(=O)C1(C)CC1(Cl)Cl)N(C)c1ccccc1 (centres undefined)	> 10	IC50 [1]: > 10 µM
CSc1nnc(SC2=CC(=O)CC(c3ccccc3)C2)s1 (centres undefined)	> 9.87	IC50 (FFLUC_HILL_SLOPE 1.55, FFLUC_R_SQUARED 0.208, HEPG2TOX_HILL_SLOPE 8.38, HEPG2TOX_R_SQUARED 0.886, read-out: LUCIFERASE INFECTION ASSAY - IC50): > 9.87 µM
O=C(NCc1ccc(C(F)(F)F)cc1)Nc1cccc2cnccc12	> 10	IC50 (HEPG2TOX_HILL_SLOPE 1.51, HEPG2TOX_R_SQUARED 0.691, read-out: LUCIFERASE INFECTION ASSAY - IC50): > 10 µM
CCOC(=O)c1c(C)[nH]c(C)c1C(=O)COC(=O)c1c(OC)cccc1OC	> 10	IC50 [1]: > 10 µM
Cc1ccc2c(c1)/C(=N/Nc1nc3ccccc3s1)C(=O)N2	4.93	IC50 (HEPG2TOX_HILL_SLOPE 7.15, HEPG2TOX_R_SQUARED 0.815, PBLUC_HILL_SLOPE 8.39, PBLUC_R_SQUARED 0.507, read-out: LUCIFERASE INFECTION ASSAY - IC50): 3.79 µM
CC1CN(C(=O)c2ccc(S(=O)(=O)Nc3ccccc3F)cc2)CC(C)O1 (centres undefined)	5.97	IC50 (PBLUC_HILL_SLOPE 1.2, PBLUC_R_SQUARED 0.687, read-out: LUCIFERASE INFECTION ASSAY - IC50): 0.955 µM
COc1cccc(/C=C2\Oc3cc(O)cc(C)c3C2=O)c1	> 11.7	IC50 [1]: > 11.7 µM
Cn1c(Nc2ccccc2)nc2cnc(-c3cccc4ccccc34)cc21	4.66	IC50 (HEPG2TOX_HILL_SLOPE 1.56, HEPG2TOX_R_SQUARED 0.963, PBLUC_HILL_SLOPE 1.41, PBLUC_R_SQUARED 0.827, read-out: LUCIFERASE INFECTION ASSAY - IC50): 0.98 µM
COCCCN1C(=O)N(Cc2ccccc2)C(=O)C12CCN(Cc1cccc(C(F)(F)F)c1)CC2	> 6.74	IC50 (HEPG2TOX_HILL_SLOPE 5.47, HEPG2TOX_R_SQUARED 0.316, read-out: LUCIFERASE INFECTION ASSAY - IC50): > 6.74 µM
CCOc1cc2cc(C(=O)c3cc(C)ccc3O)cnc2cc1OC	9.38	IC50 (HEPG2TOX_HILL_SLOPE 3.65, HEPG2TOX_R_SQUARED 0.956, PBLUC_HILL_SLOPE 5.3, PBLUC_R_SQUARED 0.515, read-out: LUCIFERASE INFECTION ASSAY - IC50): 6.19 µM
Cc1cc(=O)n2nc(CSc3nc4ccc(Cl)cc4c(=O)n3CC(C)C)sc2n1	4.07	IC50 (PBLUC_HILL_SLOPE 10, PBLUC_R_SQUARED 0.71, read-out: LUCIFERASE INFECTION ASSAY - IC50): 3.27 µM
CN(Cc1ccccc1Cl)C(=O)c1ccc(NC(=O)c2ccco2)cc1	> 10	IC50 (PBLUC_HILL_SLOPE 1.69, PBLUC_R_SQUARED 0.585, read-out: LUCIFERASE INFECTION ASSAY - IC50): 7.96 µM
CCc1c(C)sc2nc(SCC3COc4ccccc4O3)n(-c3ccc(O)cc3C)c(=O)c12 (centres undefined)	> 10	IC50 (FFLUC_HILL_SLOPE 1.97, FFLUC_R_SQUARED 0.841, read-out: LUCIFERASE INFECTION ASSAY - IC50): > 10 µM
Cc1cc(N2CCN(c3nc(C)cc(C)c3C#N)CC2)nc(C(C)C)n1	> 10	IC50 [1]: > 10 µM
Cc1ccc(-c2nnc(SCCOc3ccccc3C)nc2-c2ccc(C)cc2)cc1	> 10	IC50 (HEPG2TOX_HILL_SLOPE 0.184, HEPG2TOX_R_SQUARED 0.53, PBLUC_HILL_SLOPE 4.7, PBLUC_R_SQUARED 0.148, read-out: LUCIFERASE INFECTION ASSAY - IC50): 8.99 µM
CSc1c(C#N)c(-c2ccc(Cl)cc2)nn1C(=O)c1ccccc1Cl	> 8.5	IC50 [1]: > 8.5 µM

Compound	IC90 [µM]	also measured
Cc1cc(N2CCN(C)CC2)ccc1NC(=O)c1cnc2c(c1)c(=O)n(C)c(=O)n2C	> 10	IC50 [1]: > 10 µM
Cc1ccc(/C=C/c2ccc3ccccc3[n+]2C)cc1	> 8.52	IC50 (PBLUC_HILL_SLOPE 12.2, PBLUC_R_SQUARED 0.0729, read-out: LUCIFERASE INFECTION ASSAY - IC50): 8.36 µM
CN(Cc1ccsc1)c1nc(C(F)(F)F)nc2ccccc12	> 10	IC50 [1]: > 10 µM
N=C1NC(=O)C(C2(O)C(=O)N(Cc3ccccc3)c3ccc(Cl)cc32)S1 (centres undefined)	> 8.51	IC50 (PBLUC_HILL_SLOPE 0.13, PBLUC_R_SQUARED 0.0166, read-out: LUCIFERASE INFECTION ASSAY - IC50): > 8.51 µM
Cc1nc(NC(=O)c2ccc(C(C)(C)C)cc2)ccc1Br	> 9.5	IC50 (PBLUC_HILL_SLOPE 8.59, PBLUC_R_SQUARED 0.6, read-out: LUCIFERASE INFECTION ASSAY - IC50): 7.43 µM
CCOc1cc(/C=C/c2nc3cc(Cl)ccc3o2)ccc1OCC(=O)N(C(C)C)C(C)C	> 10	IC50 (PBLUC_HILL_SLOPE 2.25, PBLUC_R_SQUARED 0.0279, read-out: LUCIFERASE INFECTION ASSAY - IC50): > 10 µM
C=CCn1cnnc1SCC(=O)c1cccn1C	> 10	IC50 [1]: > 10 µM
OC(CSc1nnc(CNc2cccc(C(F)(F)F)c2)n1C1CCCCC1)c1ccccc1 (centres undefined)	> 10	IC50 (HEPG2TOX_HILL_SLOPE 0.64, HEPG2TOX_R_SQUARED 0.795, PBLUC_HILL_SLOPE 0.508, PBLUC_R_SQUARED 0.492, read-out: LUCIFERASE INFECTION ASSAY - IC50): 1.13 µM
CN(Cc1ccccc1NC(=O)/C=C/c1cnn(-c2ccccc2)c1)C1CCCCC1	> 10	IC50 (PBLUC_HILL_SLOPE 13.5, PBLUC_R_SQUARED 0.731, read-out: LUCIFERASE INFECTION ASSAY - IC50): 8.68 µM
COC(=O)c1noc(C)c1-c1ccnn1C(=O)Nc1cccc(Cl)c1	8.47	IC50 (PBLUC_HILL_SLOPE 10.3, PBLUC_R_SQUARED 0.543, read-out: LUCIFERASE INFECTION ASSAY - IC50): 6.84 µM
O=C(Nc1ccc2oc(=O)[nH]c2c1)c1cnn(-c2ccc(Cl)cc2)c1	> 10	IC50 [1]: > 10 µM
Cc1nc(NC(=O)CCc2c[nH]c3ccccc23)sc1-c1ccccn1	3.51	IC50 (HEPG2TOX_HILL_SLOPE 2, HEPG2TOX_R_SQUARED 0.799, PBLUC_HILL_SLOPE 14.5, PBLUC_R_SQUARED 0.715, read-out: LUCIFERASE INFECTION ASSAY - IC50): 3.02 µM
COc1cc(/C=C2/C(=O)Nc3cc(Cl)ccc32)c([N+](=O)[O-])cc1OC(F)F	4.58	IC50 (HEPG2TOX_HILL_SLOPE 4.03, HEPG2TOX_R_SQUARED 0.974, PBLUC_HILL_SLOPE 1.79, PBLUC_R_SQUARED 0.765, read-out: LUCIFERASE INFECTION ASSAY - IC50): 1.34 µM
CC(Nc1ccc2c(c1)CCC2)C(=O)Nc1sccc1C(N)=O (centres undefined)	1.74	IC50 (HEPG2TOX_HILL_SLOPE 0.241, HEPG2TOX_R_SQUARED 0.874, PBLUC_HILL_SLOPE 11.9, PBLUC_R_SQUARED 0.588, read-out: LUCIFERASE INFECTION ASSAY - IC50): 1.45 µM
CN(C)CCCNC(=O)c1ccc(-c2cn3c(-c4ccc(Cl)cc4)cnc3cn2)cc1	3.76	IC50 (HEPG2TOX_HILL_SLOPE 3.47, HEPG2TOX_R_SQUARED 0.818, PBLUC_HILL_SLOPE 9.43, PBLUC_R_SQUARED 0.518, read-out: LUCIFERASE INFECTION ASSAY - IC50): 2.98 µM
O=C(COC(=O)CCC1CCCC1)Nc1ncc(C(F)(F)F)cc1Cl	> 10	IC50 [1]: > 10 µM
CC(C)(C)OC(=O)Nc1ccc(C(=O)Nc2cccc(S(=O)(=O)NC3CC3)c2)cc1	3.66	IC50 (HEPG2TOX_HILL_SLOPE 12, HEPG2TOX_R_SQUARED 0.663, PBLUC_HILL_SLOPE 19.5, PBLUC_R_SQUARED 0.101, read-out: LUCIFERASE INFECTION ASSAY - IC50): 3.27 µM
CCc1cccc2c(C(=O)CN3CCC(C(=O)N4CCCCCC4)CC3)c[nH]c12	> 10	IC50 (PBLUC_HILL_SLOPE 1.3, PBLUC_R_SQUARED 0.149, read-out: LUCIFERASE INFECTION ASSAY - IC50): > 10 µM
CCOC(=O)c1c(NC(=O)CNc2ccccc2CN(C)C2CCCCC2)sc(CC)c1C	> 10	IC50 (PBLUC_HILL_SLOPE 1.16, PBLUC_R_SQUARED 0.382, read-out: LUCIFERASE INFECTION ASSAY - IC50): 3.12 µM
Cc1cc(=O)nc(N/N=C/c2ccccc2O)[nH]1	> 13.5	IC50 (HEPG2TOX_HILL_SLOPE 1.27, HEPG2TOX_R_SQUARED 0.681, PBLUC_HILL_SLOPE 2.52, PBLUC_R_SQUARED 0.516, read-out: LUCIFERASE INFECTION ASSAY - IC50): 6.93 µM
O=C(Nc1nc2ccccn2c1C(=O)NC1CCCC1)c1c(F)cccc1F	> 8.59	IC50 (PBLUC_HILL_SLOPE 3.61, PBLUC_R_SQUARED 0.639, read-out: LUCIFERASE INFECTION ASSAY - IC50): 6.29 µM
